Key:
Assay type in all cases: in vivo
[1] = test system: Alopecurus myosuroides (ALOMY); assay: Pre-emergence herbicidal action against ALOMY; conditions: scored visually after about 3 weeks, 100% = plants have died
Outline: (§1)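 Read-out is visual percent damage relative to untreated pots, with 100% meaning dead plants and 0% meaning no difference, assessed roughly three weeks after treatment. Compounds were applied pre-emergence to the covering soil at up to 320 g/ha.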

[2] = test system: Amaranthus retroflexus (AMARE); assay: Pre-emergence herbicidal action against AMARE; conditions: visual scoring after about 3 weeks vs untreated controls
Outline: as §1

Avena fatua (AVEFA) [3] = assay: Pre-emergence herbicidal action against AVEFA; conditions: visual scoring after about 3 weeks vs untreated controls
Outline: as §1

[4] = test system: Matricaria inodora (MATIN); assay: Pre-emergence herbicidal action against MATIN
Outline: as §1

[5] = test system: Polygonum convolvulus (POLCO); assay: Pre-emergence herbicidal action against POLCO
Outline: as §1

[6] = test system: Alopecurus myosuroides (ALOMY); assay: Post-emergence herbicidal action against ALOMY; conditions: visual rating about 3 weeks after treatment vs untreated controls (100% = plants have died, 0% = like control plants)
Outline: (§2)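 Values are percent visual activity (0% like control, 100% plants dead) after about 3 weeks in the greenhouse. Treatment: post-emergence spray at one-leaf stage, 600 l/ha spray volume, 0.5% additive, doses 320 g/ha or lower.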

Avena fatua (AVEFA) [7] = assay: Post-emergence herbicidal action against AVEFA; conditions: visual rating about 3 weeks after treatment
Outline: as §2

[8] = test system: Echinochloa crus-galli (ECHCG); assay: Post-emergence herbicidal action against ECHCG
Outline: as §2

[9] = test system: Pharbitis purpurea (PHBPU); assay: Post-emergence herbicidal action against PHBPU
Outline: as §2

Setaria viridis (SETVI) = assay: Post-emergence herbicidal action against SETVI
Outline: as §2

| Structure (SMILES) | Pre-emergence action against ALOMY ([1]; 80 g/ha) [%] | Pre-emergence action against ALOMY ([1]; 320 g/ha) [%] | Pre-emergence action against AMARE in % ([2]; 80 g/ha) [%] | Pre-emergence action against AMARE in % ([2]; 320 g/ha) [%] | Pre-emergence action against AVEFA in % (Avena fatua (AVEFA) [3]; 320 g/ha) [%] | Pre-emergence action against MATIN in % ([4]; dosage 80 g/ha) [%] | Pre-emergence action against MATIN in % ([4]; dosage 320 g/ha) [%] | Pre-emergence action against POLCO in % ([5]; dosage 80 g/ha) [%] | Pre-emergence action against POLCO in % ([5]; dosage 320 g/ha) [%] | Post-emergence action against ALOMY in % ([6]; 80 g/ha) [%] | Post-emergence action against ALOMY in % ([6]; 320 g/ha) [%] | Post-emergence action against AVEFA in % (Avena fatua (AVEFA) [7]; 320 g/ha) [%] | Post-emergence action against ECHCG in % ([8]; dosage 80 g/ha) [%] | Post-emergence action against ECHCG in % ([8]; dosage 320 g/ha) [%] | Post-emergence action against PHBPU in % ([9]; dosage 80 g/ha) [%] | Post-emergence action against PHBPU in % ([9]; dosage 320 g/ha) [%] | Post-emergence action against SETVI in % (Setaria viridis (SETVI); dosage 80 g/ha) [%] | Post-emergence action against SETVI in % (Setaria viridis (SETVI); dosage 320 g/ha) [%] | Post-emergence action against AVEFA in % (Avena fatua (AVEFA) [7]; 80 g/ha) [%] | Pre-emergence action against AVEFA in % (Avena fatua (AVEFA) [3]; 80 g/ha) [%] |
| --- | --- | --- | --- | --- | --- | --- | --- | --- | --- | --- | --- | --- | --- | --- | --- | --- | --- | --- | --- | --- |
| COC(=O)[C@H](C)COC(=O)COc1nn(-c2ccccn2)c(-c2cncc(F)c2)c1Cl [Example I-192] | 90 | 90 | 80 | 100 | 90 | 90 | 90 | 90 | 100 | 90 | 90 | 80 | 90 | 90 | 90 | 90 | 80 | 80 | – | – |
| O=C(O)COc1nn(-c2ncccc2F)c(-c2cncc(F)c2)c1C1CC1 [Example I-175] | 100 | 100 | 100 | 100 | 90 | 90 | 90 | 90 | 90 | 90 | 90 | 80 | 80 | 80 | 80 | 90 | – | 80 | 80 | – |
| C[C@@H](Oc1nn(-c2ccccn2)c(-c2cncc(F)c2)c1Cl)C(=O)O [Example I-218] | 90 | 90 | 100 | 100 | 90 | 90 | 100 | 90 | 90 | – | 90 | 90 | 80 | 90 | 90 | 100 | 80 | 80 | 80 | 80 |
| COC(=O)[C@@H](C)Oc1nn(-c2ncccc2F)c(-c2ccc(F)nc2)c1C(F)(F)F [Example I-331] | 100 | 100 | 100 | 100 | 100 | 100 | 100 | 100 | 100 | 100 | 100 | 90 | 90 | 90 | – | 90 | 90 | 90 | 90 | 100 |
| COC(=O)COc1nn(-c2nc(F)ccc2F)c(-c2cncc(F)c2)c1C1CC1 [Example I-164] | 100 | 100 | 100 | 100 | 90 | 90 | 100 | – | 100 | 100 | 100 | 80 | 80 | 80 | 80 | 90 | 80 | 80 | 80 | 90 |

Source: patent US20240041042A1, “1-(PYRIDYL)-5-AZINYLPYRAZOLE DERIVATIVES, AND THEIR USE FOR CONTROL OF UNDESIRED PLANT GROWTH” (Bayer Aktiengesellschaft, priority 2020, published 2024)
